Reference: article PMC4076215, “Nickel(II) Complex of Polyhydroxybenzaldehyde N4-Thiosemicarbazone Exhibits Anti-Inflammatory Activity by Inhibiting NF-κB Transactivation” (PLoS ONE, 2014)
In brackets after ≈: the same amount, converted by molar mass.

How the values were obtained:
ORAC antioxidant assay = assay type: physicochemical
Procedure: ORAC assay was performed based on reported procedures with slight modifications. Chemicals used such as fluorescein sodium salt, AAPH (2,2′-Azobis(2-methylpropionamidine) dihydrochloride), quercetin dehydrate and trolox ((±)-6-Hydroxy-2,5,7,8-tetramethylchromane-2-carboxylic acid) were purchased from Sigma-Aldrich. Compounds were diluted to a final concentration of 100 µg/ml, with total reaction volume of 200 µl. The assay was performed in a 96-well black microplate, with 25 µl of samples, standard (trolox), blank (solvent/PBS) or positive control (quercetin). Subsequently, 150 µl of working fluorescein solution was added to each well. The plate was incubated at 37°C for at least 5 min. Then, 25 µl of AAPH working solution was then added to the wells to make a total volume of 200 µl. […] Data were collected every 2 min for a duration of 2 h, and were analyzed by calculating the differences of area under fluorescence decay curve (AUC) of samples and blank. The values were expressed as Trolox equivalent (TE).
ROS may amplify inflammatory responses via up-regulation or activation of certain genes/transcription factors, such as NF-κB. […] Therefore, we conducted ORAC assays to investigate the antioxidant capacity of complex 5. The ORAC assay uses peroxyl radical as pro-oxidant and the antioxidant activity is quantified via area under curve (AUC). We included quercetin, a known antioxidant, as a positive control.

HeLa S3 cells = assay: Cell proliferation (MTT) assay, HeLa S3; conditions: for IC50 (cell viability, MTT): HeLa S3 cells, 48 h treatment; for IC50: Homo sapiens, HeLa S3, 48 h, read-out: IC50 (cell viability, MTT)
Procedure: (§1) A total number of 1.0×10^4 cells per well were seeded into a 96-well plate and incubated overnight at 37°C in 5% CO2. The next day, the cells were treated with a two-fold serial dilution of compounds. MTT assays were performed as described [27]. After 48 h, (4,5-dimethylthiazol-2-yl-2,5-diphenyltetrazoliumbromide) was added at 2 mg/ml. After 3 h of incubation at 37°C in 5% CO2, DMSO was added to dissolve the formazan crystals. The plates were then read in Chameleon multitechnology microplate reader (Hidex, Turku, Finland) at 570 nm absorbance. The ratio of the absorbance of treated cells to the absorbance of DMSO-treated control cells was determined as percentage cell viability.
(§2) To examine whether synthesized Ni(II) thiosemicarbazone ligands or Ni(II)-phosphine complexes were cytotoxic, we treated RAW264.7 (leukemic monocyte macrophage) and HeLa S3 (cervical adenocarcinoma) cells with these compounds for 48 h. The cell viability was determined with MTT assays [33].

RAW264.7 cells = assay: Cell proliferation (MTT) assay, RAW264.7; conditions: for IC50 (cell viability, MTT): RAW264.7 cells, 48 h treatment; for IC50: Mus musculus, RAW264.7, 48 h, read-out: IC50 (cell viability, MTT)
Procedure: as §1, §2

[1] = test system: carrageenan-induced paw edema; assay: Carrageenan-induced paw edema mouse model; assay type: in vivo, C57BL/6 mice; conditions: 2.0 mg/kg i.p., 1 h after carrageenan; control 7.3±0.8 mm
Procedure: Male C57BL/6 mice at age 8–12 weeks old were from Jackson Laboratories, USA. Mice were administrated intraperitoneally (i.p.) with two different doses of complex 5 (2.5 mg/kg and 5 mg/kg). Negative control groups were i.p. injected with 200 µl of vehicle (50% v/v ethanol). A standard drug 2 mg/kg dexamethasone (Sigma) was included in the study. After 1 h, paw edema was induced by injecting 50 µl of 1% carrageenan (Sigma) through the plantar tissue at the right hind paw of each mouse. The thickness of right paw of each mouse was measured at 1, 3 and 5 h after carrageenan was administered. Four animals per group were tested (n = 4). Quantification of right hind paw thickness were analyzed for statistical significance using Student's t-test. Animals were housed in individually ventilated cages in specific pathogen free facility, Animal Experimental Unit, University of Malaya. All efforts were made to minimize animal suffering and the number of animals used. At the end of the experiment, mice were euthanized by CO2 asphyxiation. Animal work was approved by the Faculty of Medicine Animal Care and Use Committee (FOMIACUC) at University of Malaya and reported according to ARRIVE guidelines.
To test the in vivo inhibitory effect of complex 5 on inflammation, we administrated two doses of complex 5 (2.5 mg/kg and 5.0 mg/kg) into C57BL/6 wild type mice through i.p. injection. For a positive control, we performed i.p. injection of 2.0 mg/kg dexamethasone into the mice. After 1 h, paw edema in the mice was induced by injecting 1% carrageenan to the right hind paw. The paw sizes were measured at 1, 3 and 5 h after edema induction. The edema formation at the mice paw was due to inflammatory response causing the accumulation of histamine, serotonin, prostaglandin and other secreted inflammatory mediators.
Male C57BL/6 mice at age of 8-12 weeks old were non-injected or injected i.p. with 2.5 mg/kg or 5.0 mg/kg complex 5, whereas for positive controls, mice were injected i.p. with 2.0 mg/kg dexamethasone. After 1 h, acute inflammation was induced in the right hind paw of each mice by injecting 50 µl of carrageenan. The size of the paw were measured after (A) 1 h or, (B) 1, 3 and 5 h post carrageenan injection. Shown were mean ±SD (n = 4). Statistical analysis was performed with Student's t-test.

[2] = test system: NF-κB p65 nuclear translocation; assay: NF-κB p65 immunofluorescence staining, LPS-stimulated RAW264.7; assay type: cell-based; conditions: RAW264.7, 25 µg/ml pre-treatment 4 h, LPS 1 h
Procedure: NF-κB Activation Kits (Thermo Scientific) were used as previously described. Cells were pretreated with compounds for 4 h before being stimulated with lipopolysaccharide (LPS) ortumour necrosis factor α (TNFα) for 1 h. Cells were then fixed and permeabilized before probing with NF-κB p65 antibody for 1 h. Staining solution (containing DyLight 488 Goat Anti-Rabbit and Hoechst dye) was then added and incubated for 1 h. The plate with stained cells was evaluated using a Cellomics ArrayScan HCS Reader (Cellomics, PA, USA). Data were captured, extracted and analyzed with ArrayScan II Data Acquisition and Data Viewer version 3.0 (Cellomics).
NF-κB acts as a central mediator of inflammatory responses and compounds that inhibit NF-κB activation are potential anti-inflammatory agents. To evaluate this, we performed immunofluorescence staining of NF-κB p65. […] In response to LPS stimulation, NF-κB p65 translocated from cytoplasm into the nucleus, implying NF-κB activation (Figure 3). […] Moreover, we observed that complex 6–8 required higher concentration (>50 µg/ml) to elicit similar inhibitory effect (data not shown).
Figure 3 Effect of N4-substituteted thiosemicarbazone complexes on LPS-induced NF-κB nuclear transloction in RAW264.7 macrophage cells. Staining of Hoechst (nucleus) and NF-κB in RAW264.7 cells. […]

Row | SMILES | Antioxidant capacity, Trolox equivalent (ORAC antioxidant assay) [µM TE per 100 µM] | IC50 (cell viability, MTT) (HeLa S3 cells) [µg/mL] | IC50 (cell viability, MTT) (RAW264.7 cells) [µg/mL] | Paw size [1] [mm] | Inhibition of LPS-mediated NF-κB p65 nuclear translocation [2] | IC50 (HeLa S3 cells) [µg/mL] | IC50 (RAW264.7 cells) [µg/mL]
1 | O=c1c(O)c(-c2ccc(O)c(O)c2)oc2cc(O)cc(O)c12 [Quercetin, quercetin dehydrate, reference compound] | 24.41±0.35 | – | – | – | – | – | –
2 | CNC(=S)NN=Cc1cccc(O)c1[O-].[Cl-].[Ni+2].c1ccc(P(c2ccccc2)c2ccccc2)cc1 [complex 6, (6-Hydroxy-2-{[2-(N-methylcarbamothiolyl)hydrazin-1-ylidene-[kappa]2N1,S]methyl}phenolato-[kappa]O1)(triphenylphosphane-[kappa]P)nickel(II) chloride] | 15.65±0.89 | 77.55 ± 1.56 | 37.73 ± 3.62 | – | – | – | –
3 | Oc1cccc2c1[O][Ni-2]1([P+](c3ccccc3)(c3ccccc3)c3ccccc3)[S]C(Nc3ccccc3)=N[N+]1=C2 (stereo not drawn) [complex 7] | 9.37±1.14 | >100 | 42.44 ± 4.17 | – | – | – | –
4 | CCNC1=N[N+]2=Cc3cccc(O)c3[O][Ni-2]2([P+](c2ccccc2)(c2ccccc2)c2ccccc2)[S]1 (stereo not drawn) [complex 8] | 13.34±1.49 | >100 | 56.31 ± 3.86 | – | – | – | –
5 | C[C@@H]1C[C@H]2[C@@H]3CCC4=CC(=O)C=C[C@]4(C)[C@@]3(F)[C@@H](O)C[C@]2(C)[C@@]1(O)C(=O)CO [dexamethasone, reference compound] | – | – | – | 4.6±0.4 | – | – | –
6 | NC(=S)N/N=C/c1cccc(O)c1O [ligand 1] | 5.18±0.05 | – | – | – | did not affect NF-κB translocation | > 100 | 22.8 ± 1.67 (≈ 108 µM)
7 | CNC(=S)N/N=C/c1cccc(O)c1O [ligand 2] | 8.23±0.43 | – | – | – | – | > 100 | 27.8 ± 0.96 (≈ 124 µM)
8 | Oc1cccc(/C=N/NC(=S)Nc2ccccc2)c1O [ligand 3] | 9.71±0.77 | – | – | – | – | > 100 | 31.5 ± 1.82 (≈ 110 µM)
9 | CCNC(=S)N/N=C/c1cccc(O)c1O [ligand 4] | 7.54±1.61 | – | – | – | – | 87.2 ± 1.81 (≈ 364 µM) | 19.4 ± 1.07 (≈ 80.9 µM)
